# Read-outs that look alike come from different tables or passages of the source.
# Columns and labels:
# [1] = test system: MBL-producing Enterobacterales (n=234); test: Meropenem MIC distribution, all MBL-producing Enterobacterales; type: cell-based; settings: for No. of strains with indicated MIC: MEM alone or +50 µM ZN148
# Experimental: (§1) MICs of carbapenems alone and in combination with inhibitors were determined by broth microdilution according to the Clinical and Laboratory Standards Institute (CLSI) guidelines ([48]) using either premade plates (TREK Diagnostic Systems/Thermo Fisher Scientific, East Grinstead, United Kingdom) with meropenem or in-house-prepared plates with meropenem, imipenem, and doripenem. ZN148 and other inhibitors were tested at a fixed concentration of 50 μM. Cation-adjusted Mueller-Hinton medium (TREK Diagnostic Systems/Thermo Fisher Scientific; Becton Dickinson, Franklin Lakes, NJ) were used as growth medium. The plates were incubated for 20 h at 37°C. ZN148, ZN222, ZN223, ZN228, and TPA were initially tested in combination with meropenem using two indicator strains: NDM-1-producing K. pneumoniae ([49], [50]) and VIM-2-producing P. aeruginosa ([51]). The activity of ZN148 were subsequently tested against two extended strain collections: (i) in combination with meropenem against MBL-producing Enterobacterales (n = 62), MBL-producing P. aeruginosa (n = 9) and MBL- and class D carbapenemase-coproducing Enterobacterales (n = 5) from the strain collection at the Norwegian National Advisory Unit on Detection of Antimicrobial Resistance and (ii) in combination with meropenem, imipenem, and doripenem against globally collected MBL-producing E. coli (n = 87), K. pneumoniae (n = 85), P. aeruginosa (n = 52), and A. baumannii (n = 6), MBL- and class A/D carbapenemase-coproducing E. coli (n = 11), K. pneumoniae (n = 15) and A. baumannii (n = 7) at IHMA Europe, Sàrl, Switzerland. E. coli ATCC 25922 and P. aeruginosa ATCC 27853 were used as quality control strains. The MBL inhibitors were also tested for intrinsic antibacterial activity against the strains.
# [2] = test system: strains harboring only the class A carbapenemase KPC; test: Carbapenem potentiation, strains with only KPC; type: cell-based; settings: 50 μM ZN148
# [3] = test system: NDM-1-producing A. baumannii strains (n=6); test: Carbapenem MIC, NDM-1-producing A. baumannii; type: cell-based
# Experimental: as §1
# [4] = test system: NDM-1-producing K. pneumoniae K66-45; test: Time-kill assay; type: cell-based
# Experimental: To determine the kinetics of killing of the meropenem-ZN148 combination, NDM-1-producing K. pneumoniae K66-45 (1 × 10^6 CFU/ml) in cation-adjusted Mueller-Hinton broth II (Sigma-Aldrich, St. Louis, MO) was treated with either 4 mg/liter meropenem or a combination of 4 mg/liter meropenem plus 50 or 100 μM ZN148 and grown at 37°C with shaking (180 rpm). The cell number was determined over the course of 24 h by using a modified Miles-Misra method ([52]). Briefly, […] serial dilutions of culture in sterile PBS were spotted and dried on square (10 by 10 cm) Luria-Bertani agar (Oxoid, Basingstoke, UK) plates at room temperature before incubation at 37°C. The limit of detection was set as […] in […] of undiluted culture, representing 100 CFU/ml.
# VIM-2 = target: T1, VIM-2 (Escherichia coli, UniProt Q5U7L7); type: biochemical
# T1 construct: made in house
# Experimental: For reversibility of enzyme activity after incubation with ZN148, 3 ml of VIM-2 or NDM-1 was diluted with or without ZN148 in Chelex HEPES buffer (pH 7.5) and subsequently incubated for 1 h on ice. Then, 2.5 ml of each solution was loaded onto an equilibrated PD-10 column (GE Healthcare, Pittsburgh, PA), washed with 1 ml, and eluted with 1.5 ml of Chelex HEPES buffer (pH 7.5), respectively. Samples spiked and not spiked with inhibitor were diluted to a final enzyme concentration of 1 nM VIM-2 and 3 nM NDM-1. The initial reaction velocity was determined by adding nitrocefin (Merck) for VIM-2 or imipenem (Sigma-Aldrich) for NDM-1 at final concentrations of 50 and 100 μM, respectively. The initial enzyme reactions were recorded at 25°C. Inhibitor and enzyme alone were included as controls. All measurements were performed at least in duplicates. For enzyme restorability, pre- and postcolumn samples were supplemented with ZnSO4 (Sigma-Aldrich) to a final concentration of 100 μM and allowed to incubate for 5 min at 25°C. The initial enzyme velocity was then determined as described above.
# [5] = test system: NDM-1-producing K. pneumoniae K66-45; test: Meropenem MIC, broth microdilution, indicator strain K66-45; type: cell-based; settings: for MIC: Klebsiella pneumoniae
# Experimental: as §1
# [6] = test system: VIM-2-producing P. aeruginosa K34-7; test: Meropenem MIC, broth microdilution, indicator strain K34-7; type: cell-based
# Experimental: as §1
# [7] = meropenem 4 mg/liter with either 50 or 100 μM ZN148
smiles,measurement,setting,value
CN(C[C@H](O)[C@@H](O)[C@H](O)[C@H](O)CO)C(=O)c1ccc(CN(Cc2ccccn2)Cc2ccccn2)nc1 [ZN148],strains with meropenem MIC reduced to susceptible levels (≤2 mg/liter),"[1]; ZN148 at 50 μM, n = 234",> 98%
same,"potentiation of meropenem, doripenem, or imipenem",[2],no potentiation
same,reduction of meropenem MIC,"[3]; in four of six clinical strains, class D carbapenemase-negative",> 2 fold
same,cell numbers after 8 h (below limit of detection),[4]; [7],< 1 × 10^2 CFU/ml
same,killing effect of combination,[4]; [7],bactericidal
same,regrowth within 24 h,[4]; [7],no regrowth
same,mode of inhibition,VIM-2,irreversible
same,"MBL activity restored by addition of exogenous zinc, compared to untreated control","VIM-2; after incubation with inhibitor and its removal (PD-10), 100 μM ZnSO4",~30%
same,restoration of meropenem clinical susceptibility (EUCAST breakpoints),[5]; inhibitor at 50 μM,fully restored meropenem clinical susceptibility
same,restoration of meropenem clinical susceptibility (EUCAST breakpoints),[6]; inhibitor at 50 μM,fully restored meropenem clinical susceptibility
C[C@@H](O)[C@H]1C(=O)N2C(C(=O)O)=C(S[C@@H]3CN[C@H](C(=O)N(C)C)C3)[C@H](C)[C@H]12 [meropenem],MIC90,[1],≥ 64 µg/mL
same,No. of strains with indicated MIC,[1]; MIC 0.5 mg/L,1
same,No. of strains with indicated MIC,[1]; MIC 1 mg/L,2
same,No. of strains with indicated MIC,[1]; MIC 2 mg/L,3
same,No. of strains with indicated MIC,[1]; MIC 4 mg/L,10
same,No. of strains with indicated MIC,[1]; MIC 8 mg/L,9
same,No. of strains with indicated MIC,[1]; MIC 16 mg/L,22
same,No. of strains with indicated MIC,[1]; MIC 32 mg/L,35
same,No. of strains with indicated MIC,[1]; MIC ≥64 mg/L,152
same,MIC,"[3]; carbapenem alone or in combination with 50µM ZN148, one value per strain (n=6)",> 64 µg/mL
same,cell number after 24 h,[4]; meropenem alone 4 mg/liter,> 1 × 10^9 CFU/ml
same,initial reduction in cell numbers (bacteriostatic effect),[4]; meropenem alone 4 mg/liter,2 log
same,MIC,"[5]; alone or in presence of 30 µM, 50 µM or 100 µM ZN148 (Table S6 title), read-out: MIC of meropenem",> 32 µg/mL
same,MIC,"[5]; meropenem alone or +50 µM TPA or ZN148, read-out: Meropenem MIC",32 to 64 µg/mL
same,MIC,"[6]; Pseudomonas aeruginosa, meropenem alone or +50 µM TPA or ZN148",32 to 64 µg/mL
